Like-named read-outs stand apart in the source and are kept apart here.
Target: T1, Humicola insolens cellobiose dehydrogenase, wild type (major form, 92 kDa, pI 4.0, purified from CELLUZYME), SEQ ID NO:2 (Mycothermus thermophilus, UniProt Q9P8H5)
T1 construct: mature 22-785 after 21-residue signal peptide
T1 sequence (Q9P8H5 22-785): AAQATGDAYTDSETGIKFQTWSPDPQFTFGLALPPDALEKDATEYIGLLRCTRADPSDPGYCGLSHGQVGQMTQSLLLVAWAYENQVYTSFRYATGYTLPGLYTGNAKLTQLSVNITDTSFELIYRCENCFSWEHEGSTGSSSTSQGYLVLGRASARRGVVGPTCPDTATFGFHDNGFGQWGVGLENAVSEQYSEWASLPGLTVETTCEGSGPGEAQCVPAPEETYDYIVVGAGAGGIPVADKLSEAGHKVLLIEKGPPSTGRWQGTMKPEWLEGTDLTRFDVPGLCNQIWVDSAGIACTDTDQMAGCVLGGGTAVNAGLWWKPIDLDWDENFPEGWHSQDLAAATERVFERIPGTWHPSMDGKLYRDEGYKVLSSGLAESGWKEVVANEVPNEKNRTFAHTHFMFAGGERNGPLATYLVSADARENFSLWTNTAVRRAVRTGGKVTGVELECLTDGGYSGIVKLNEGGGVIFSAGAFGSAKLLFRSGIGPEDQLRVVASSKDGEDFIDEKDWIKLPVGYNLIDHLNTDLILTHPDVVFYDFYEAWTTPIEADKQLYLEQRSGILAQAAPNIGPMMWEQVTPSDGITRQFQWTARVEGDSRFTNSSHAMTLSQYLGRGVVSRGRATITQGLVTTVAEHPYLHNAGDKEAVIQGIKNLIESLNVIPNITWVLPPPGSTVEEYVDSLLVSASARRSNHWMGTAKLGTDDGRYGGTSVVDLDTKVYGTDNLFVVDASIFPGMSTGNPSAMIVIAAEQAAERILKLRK
Assay: Steady-state kinetics of cellobiose dehydrogenase with electron donors and acceptors (Lineweaver-Burke plots)
Type: biochemical
Settings: 0.1 M sodium phosphate pH 7.5, 40° C.; for kcat (electron acceptor) / kcat (electron donor sugar): mol of oxidized cellobiose/s/mol of enzyme
Experimental: All absorption spectra and kinetic measurements were recorded on a Hewlett-Packard 8452A Diode Array Spectrophotometer in 0.75 ml black cuvettes with 1 cm optical path. The fluorescence spectra were recorded on a PERKIN ELMER LS 50.
Potassium ferricyanide (Merck): ε420 =970 M^-1.cm^-1, 3,5-di-tert-butyl-1,2-benzoquinone (Merck): ε410 =1,400 M^-1.cm^-1, Methylene Blue (Merck): ε610 =42,000 M^-1.cm^-1, cytochrome c (Sigma, from horse heart): ε550 =8,000 M^-1.cm^-1.
All measurements were performed in 0.1 M sodium phosphate pH 7.5 buffer at 40° C. […] The reactions were monitored for 400 s as changes in absorbance at the appropriate wavelength (see above). The benzoquinone was dissolved in ethanol to a concentration of 10 mM and diluted in phosphate buffer to the appropriate concentration. The catalytic constants (kcat) were expressed as mol of oxidized cellobiose/s/mol of enzyme. One equivalent of DCPIP, Methylene Blue, or benzoquinone oxidizes one equivalent of cellobiose whereas two equivalents of cytochrome c or ferricyanide oxidizes one equivalent of cellobiose. The kinetic constants were determined using Lineweaver-Burke plots and were the result of dual determinations.

[1] = electron acceptor + 225 μM cellobiose
[2] = electron acceptor + 225 μM cellobiose, read-out: Km (electron acceptor)
[3] = sugar + 90 μM DCPIP, read-out: Km (electron donor sugar)

Structure (SMILES) | kcat (electron acceptor) [1] | Km [2] | kcat (electron donor sugar) (sugar + 90 μM DCPIP) | Km [3]
CN(C)c1ccc2nc3ccc(=[N+](C)C)cc-3sc2c1 [Methylene Blue] | 1.85 s⁻¹ | 18 µM | – | –
CC(=O)N[C@H]1C(O)O[C@H](CO)[C@@H](O[C@@H]2O[C@H](CO)[C@H](O)[C@H](O)[C@H]2O)[C@@H]1O (stereo partly drawn) [N-Acetyllactosamine, N-acetyllactosamine] | – | – | 0 s⁻¹ | –
OC[C@H]1OC(O)[C@H](O)[C@@H](O)[C@@H]1O (stereo partly drawn) [Glucose] | – | – | 0 s⁻¹ | –
O=C1C(Cl)=CC(=Nc2ccc(O)cc2)C=C1Cl [DCPIP, 2,6-dichlorophenolindophenol] | 12 s⁻¹ | 26 µM | – | –
OC1OC[C@@H](O[C@@H]2OC[C@@H](O)[C@H](O)[C@H]2O)[C@H](O)[C@H]1O (stereo partly drawn) [Xylobiose] | – | – | 2.15 s⁻¹ | –
OC[C@H]1O[C@H](O[C@H]2[C@H](O)[C@@H](O)[C@H](O)O[C@@H]2CO)[C@H](O)[C@@H](O)[C@@H]1O [Maltose] | – | – | 0.83 s⁻¹ | 11000 µM
OC[C@H]1O[C@@H](O[C@H]2[C@H](O)[C@@H](O)[C@H](O[C@H]3[C@H](O)[C@@H](O)[C@H](O[C@H]4[C@H](O)[C@@H](O)[C@H](O[C@H]5[C@H](O)[C@@H](O)C(O)O[C@@H]5CO)O[C@@H]4CO)O[C@@H]3CO)O[C@@H]2CO)[C@H](O)[C@@H](O)[C@@H]1O (stereo partly drawn) [Cellopentaose] | – | – | 8.3 s⁻¹ | –
OC[C@H]1O[C@@H](O[C@H]2[C@H](O)[C@@H](O)C(O)O[C@@H]2CO)[C@H](O)[C@@H](O)[C@H]1O (stereo partly drawn) [Lactose] | – | – | 10 s⁻¹ | 51 µM
CC(=O)N[C@H]1[C@H](O[C@H]2[C@H](O)[C@@H](NC(C)=O)C(O)O[C@@H]2CO)O[C@H](CO)[C@@H](O)[C@@H]1O (stereo partly drawn) [N,N-Diacetylchitobiose, N,N-diacetylchitobiose] | – | – | 0 s⁻¹ | –
OC[C@H]1O[C@@H](O[C@H]2[C@H](O)[C@@H](O)C(O)O[C@@H]2CO)[C@H](O)[C@@H](O)[C@@H]1O (stereo partly drawn) [Cellobiose] | – | – | 10 s⁻¹ | 11 µM

From US6033891A, “Nucleic acids encoding polypeptides having cellobiose dehydrogenase activity” (Novo Nordisk Biotech, Inc., priority 1999, dated 2000)
